Test results reported in publication PMC7260283, “The Amino Terminus of LeuT Changes Conformation in an Environment Sensitive Manner” (Neurochemical Research, 2019).

Molecular target: T1, wild type LeuT (Aquifex aeolicus, UniProt O67854)
T1 construct: gene snf; full-length, His-tagged, expressed in E. coli C41(DE3), purified in DDM; plasmid from Eric Gouaux
Experiment: scintillation proximity assay, competition of cold leucine with [3H]leucine, YSi beads
Format: binding
Conditions: purified His-tagged protein; competitive with [3H]leucine

Question: For `CC(C)C[C@H](N)C(=O)O` [leucine], which KI is on record?
Answer: Its KI is 0.0155 ± 0.0024 µM.
